For one series, the system named is HCoV-OC43. Kind of series: HCoV-OC43 cytopathic effects. As to conditions: Betacoronavirus 1, OC43, HCT-8, 120 h, read-out: Anti-HCoV-OC43 (EC50/μM). It is filed as cell-based.
A further series has as its system HCoV-NL63. Kind of series: HCoV-NL63 cytopathic effects. It is filed as cell-based. As to conditions: Human coronavirus NL63, LLC-MK2, 120 h, read-out: Anti-HCoV-NL63 (EC50/μM).
The next series is described as follows: in vitro. As to conditions: human.

Where only a bound is given, the exact number is not on record here.

As to `CCC(CC)COC(=O)[C@H](C)N[P@](=O)(OC[C@H]1O[C@@](C#N)(c2ccc3c(N)ncnn23)[C@H](O)[C@@H]1O)Oc1ccccc1` [Remdesivir], the results for the EC50 in the series with HCoV-OC43 and in the series on HCoV-NL63 were 0.82 µM and 2.89 µM, respectively. Further, the CC50 in the series “in vitro” is above 100 µM.

The values are drawn from PMC8600920 (Antiviral Research, 2021).
